From ChEMBL document CHEMBL5380782, “Design, Biological Evaluation, and Computer-Aided Analysis of Dihydrothiazepines as Selective Antichlamydial Agents” (J Med Chem, 2023)
In brackets after ≈: the same amount, converted by molar mass. Activity calls are given as the source filed them. The calls are words filed in the database; no cut-off is given here.

Experiments:
[1] = test system: Salmonella typhimurium; assay: Mutagenicity in Salmonella typhimurium TA100 assessed as number of revertants per plate at 2.5 ug pretreated for 90 mins measured after 66 hrs in presence of S9 by AMES test (reference value: 201 +/- 9.90); type: functional, Salmonella enterica subsp. enterica serovar Typhimurium; conditions: dose 2.5 µg; time 67.5 hrs
[2] = test system: Salmonella typhimurium; assay: Mutagenicity in Salmonella typhimurium TA98 assessed as number of revertants per plate at 2.5 ug pretreated for 90 mins measured after 66 hrs in presence of S9 fraction by AMES test (reference value: 24.33 +/- 9.50); type: functional, Salmonella enterica subsp. enterica serovar Typhimurium; conditions: dose 2.5 µg; time 67.5 hrs
[3] = test system: Chlamydia trachomatis; assay: Antibacterial activity against Chlamydia trachomatis serovar L2 infected in HEp-2 cells assessed as bacterial growth inhibition incubated for 16 hrs by IFA assay; type: functional, organism-based; conditions: serovar L2, HEp-2, 16 h
[4] = test system: Chlamydia trachomatis; assay: Antibacterial activity against Chlamydia trachomatis serovar L2 infected in HEp-2 cells assessed as bacterial growth inhibition at 25 to 0.39 ug/ml incubated for 16 hrs by IFA assay; type: functional, organism-based; conditions: dose 25-0.39 µg/ml
[5] = Cytotoxicity against HEp-2 cells assessed as cell viability at 256 ug/ml incubated for 20 hrs by XTT assay relative to control; type: toxicity, cell-based; conditions: human, at 256 µg/mL, read-out: Activity
[6] = test system: HEp-2; assay: Cytotoxicity against HEp-2 cells assessed as cell viability at 25 ug/ml incubated for 20 hrs by XTT assay relative to control; type: toxicity, cell-based; conditions: human, hep-2, 20 h, at 25 µg/mL
[7] = test system: Chlamydia trachomatis; assay: Antibacterial activity against Chlamydia trachomatis L2 infected in HEp-2 cells assessed as inhibition of infectious progeny incubated for 24 hrs by fluorescence microscopy; type: functional, organism-based; conditions: L2, HEp-2, 24 h
[8] = Cytotoxicity against HEK293 cells assessed as cell survival at 256 ug/ml incubated for 20 hrs by XTT assay relative to control; type: toxicity, cell-based; conditions: human, at 256 µg/mL, read-out: Survival
[9] = Cytotoxicity against HEC-1-A cells assessed as cell survival at 256 ug/ml incubated for 20 hrs by XTT assay relative to control; type: toxicity, cell-based; conditions: human, at 256 µg/mL, read-out: Survival
[10] = test system: Salmonella typhimurium; assay: Mutagenicity in Salmonella typhimurium TA98 assessed as number of revertants per plate at 10 ug pretreated for 90 mins measured after 66 hrs by AMES test (reference value: 25.67 +/- 5.51); type: functional, Salmonella enterica subsp. enterica serovar Typhimurium; conditions: dose 10 µg; time 67.5 hrs
[11] = Cytotoxicity against HEK293 cells assessed as cell viability at 25 ug/ml incubated for 20 hrs by XTT assay relative to control; type: toxicity, cell-based; conditions: human, at 25 µg/mL, read-out: Activity
[12] = test system: Chlamydia trachomatis; assay: Inhibition of recombinant Chlamydia trachomatis ClpX ATPase activity assessed as reduction in ATP consumption at 25 ug/ml incubated for 60 mins by Kinase Glo assay relative to control; conditions: dose 25.0 µg/ml

| Structure (SMILES) | IC50 ([3]; read-out: IC50) | IC50 ([3]; read-out: pIC50 (converted)) [µM] | other results |
| --- | --- | --- | --- |
| Nc1ccc2cc3ccccc3cc2c1 [2-AMINOANTHRACENE] |  |  | Activity [1]: 1256; Activity [2]: 137 |
| COc1ccc(C2Sc3ccc(C(F)(F)F)cc3NC3=C2C(=O)c2ccccc23)cc1 (configuration not stated) | 12.3 µg/mL | 28.2 |  |
| O=C1C2=C(Nc3ccccc3SC2c2ccc(OC(F)(F)F)cc2)c2ccccc21 (configuration not stated) | 7.44 µg/mL | 17.4 |  |
| COc1ccc(C2SCCNC3=C2C(=O)c2ccccc23)cc1 (configuration not stated) | 16.1 µg/mL |  |  |
| O=C(O)c1ccc(C2Sc3ccccc3NC3=C2C(=O)c2ccccc23)cc1 (configuration not stated) |  |  | inhibition [4]: inactive |
| Cc1ccc(C2Nc3ccccc3NC3=C2C(=O)c2ccccc23)cc1 (configuration not stated) | 15 µg/mL |  |  |
| N#Cc1ccccc1C1Sc2ccc(C(F)(F)F)cc2NC2=C1C(=O)c1ccccc12 (configuration not stated) | 1.61 µM | 1.62 | viability at 20 h, 256 ug/ml [5]: 100% |
| O=C1C2=C(Nc3cc(C(F)(F)F)ccc3SC2c2ccc(Br)cc2)c2ccccc21 (configuration not stated) | 6.93 µg/mL |  |  |
| COc1cccc(C2C3=C(Nc4ccccc4S2(=O)=O)c2ccccc2C3=O)c1 (configuration not stated) | 10 µg/mL |  |  |
| O=C1C2=C(Nc3ccccc3SC2c2ccc(OCc3ccccc3)cc2)c2ccccc21 (configuration not stated) | 22.8 µg/mL | 51.3 |  |
| O=C1C2=C(Nc3ccccc3SC2c2ccc(-c3ccccc3)cc2)c2ccccc21 (configuration not stated) |  |  | inhibition [4]: inactive |
| O=C1C2=C(Nc3ccccc3SC2c2ccc(Cl)cc2)c2ccccc21 (configuration not stated) | 6.59 µg/mL | 17.4 |  |
| COc1ccccc1C1Sc2ccccc2NC2=C1C(=O)c1ccccc12 (configuration not stated) | 3.32 µg/mL | 8.91 | Activity [6]: 73%; IC50 [7]: 6.41 µg/mL (≈ 17.3 µM); viability at 20 h, 256 ug/ml [8]: ≥ 75%; viability at 20 h, 256 ug/ml [9]: ≥ 75%; viability at 20 h, 256 ug/ml [5]: 50% |
| O=C1C2=C(Nc3ccccc3SC2c2ccc(O)cc2)c2ccccc21 (configuration not stated) | 14.4 µg/mL | 39.8 |  |
| Nc1ccc([N+](=O)[O-])cc1N |  |  | Activity [10]: 34.5 |
| Cc1ccc(C2Sc3ccccc3NC3=C2C(=O)c2ccccc23)cc1 (configuration not stated) | 6.72 µg/mL |  |  |
| Cc1ccccc1C1Sc2ccccc2NC2=C1C(=O)c1ccccc12 (configuration not stated) | 7.82 µM | 7.94 |  |
| Cc1cccc(C2Sc3ccccc3NC3=C2C(=O)c2ccccc23)c1F (configuration not stated) | 4.69 µg/mL | 12.6 | viability at 20 h, 25 ug/ml [11]: 78%; IC50 [7]: 7.13 µg/mL (≈ 19.1 µM); inhibition [12]: 20%; viability at 20 h, 256 ug/ml [8]: ≥ 75%; viability at 20 h, 256 ug/ml [9]: ≥ 75%; viability at 20 h, 256 ug/ml [5]: 50% |
| N#Cc1ccc(C2Nc3ccccc3NC3=C2C(=O)c2ccccc23)cc1 (configuration not stated) | 20.9 µg/mL |  |  |
| CC(=O)Oc1ccc(C2Sc3ccccc3NC3=C2C(=O)c2ccccc23)cc1 (configuration not stated) | 7.18 µg/mL |  |  |
